Source: patent US9914730B2, “Azaquinazoline inhibitors of Atypical protein Kinase C” (Ignyta, Inc., priority 2012, dated 2018)
pIC50: −log10 of the molar value.

These molecules were tested against T1, full-length human PKCι (Homo sapiens, UniProt P41743) (assay: PKCι IC50 IMAP assay, full-length PKCι at 150 μM ATP). Settings: read-out: IC50 in IMAP assay against full length PKCi at 150 μM ATP.
T1 construct: Recombinant, full-length human PKCι expressed in Sf21 insect cells is also commercially available; purchased; host or cells: Sf21 insect cells
T1 sequence (P41743 1-596): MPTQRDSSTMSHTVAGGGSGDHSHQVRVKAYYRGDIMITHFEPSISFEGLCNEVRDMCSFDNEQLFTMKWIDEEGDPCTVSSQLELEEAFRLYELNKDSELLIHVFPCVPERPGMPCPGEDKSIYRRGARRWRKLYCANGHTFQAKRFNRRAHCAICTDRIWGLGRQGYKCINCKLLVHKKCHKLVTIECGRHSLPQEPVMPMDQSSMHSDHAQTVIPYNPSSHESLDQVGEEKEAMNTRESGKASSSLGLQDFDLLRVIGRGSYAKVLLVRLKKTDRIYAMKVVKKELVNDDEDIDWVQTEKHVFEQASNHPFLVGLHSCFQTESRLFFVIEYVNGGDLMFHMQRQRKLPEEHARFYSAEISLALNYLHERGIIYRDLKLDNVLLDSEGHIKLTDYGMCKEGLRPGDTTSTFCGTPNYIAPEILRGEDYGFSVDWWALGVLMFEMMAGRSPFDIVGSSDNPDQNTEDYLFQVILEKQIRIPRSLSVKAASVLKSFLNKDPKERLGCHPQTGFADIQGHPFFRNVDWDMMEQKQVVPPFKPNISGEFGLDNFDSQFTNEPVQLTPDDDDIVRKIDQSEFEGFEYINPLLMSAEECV
Assay type: biochemical
Outline: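 Recombinant full-length human PKCι (Sf21-expressed, typically 15 pM) phosphorylated 100 nM 5FAM-labelled PKCε pseudosubstrate-derived peptide with 150 μM ATP (5× KM^APP) in 18 mM tris-HCl pH7.5, 9 mM MgCl2, EGTA, DTT, 4% DMSO. After 60 min at room temperature, IMAP binding reagent was added for 2 h and fluorescence polarisation read.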

pIC50, 5.00 to 6.00:
COc1cncc2nc(-c3ccnc(Nc4ccccc4)c3)nc(NCCC(N)=O)c12 [Example 458, 3-[5-Methoxy-2-(2-phenylamino-pyridin-4-yl)-pyrido[3,4-d]pyrimidin-4-ylamino]-propionamide]
COc1cncc2nc(-c3ccnc(Nc4ccccc4)c3)nc(N3CC[C@@H](O)[C@@H](O)CC3)c12 [Example 467, (meso)-cis-1-[5-Methoxy-2-(2-phenylamino-pyridin-4-yl)-pyrido[3,4-d]pyrimidin-4-yl]-azepane-4,5-diol]
COc1cccc(Nc2cc(-c3nc(N4CCC(O)CC4)c4c(OC)cncc4n3)ccn2)n1 [Example 469, 1-{5-Methoxy-2-[2-(6-methoxy-pyridin-2-ylamino)-pyridin-4-yl]-pyrido[3,4-d]pyrimidin-4-yl}-piperidin-4-ol]
COc1cncc2nc(-c3ccnc(Nc4cccc(F)n4)c3)nc(N3CC[C@H](CO)C3)c12 [Example 470, ((S)-1-{2-[2-(6-Fluoro-pyridin-2-ylamino)-pyridin-4-yl]-5-methoxy-pyrido[3,4-d]pyrimidin-4-yl}-pyrrolidin-3-yl)-methanol]
COc1cccc(Nc2cc(-c3nc(N4CC[C@H](CO)C4)c4c(OC)cncc4n3)ccn2)n1 [Example 471, ((S)-1-{5-Methoxy-2-[2-(6-methoxy-pyridin-2-ylamino)-pyridin-4-yl]-pyrido[3,4-d]pyrimidin-4-yl}-pyrrolidin-3-yl)-methanol]

pIC50, > 7.00:
Clc1ccccc1Nc1cc(-c2nc(N3CCNCC3)c3c(C4CC4)cncc3n2)ccn1 [Example 477, (2-Chloro-phenyl)-[4-(5-cyclopropyl-4-piperazin-1-yl-pyrido[3,4-d]pyrimidin-2-yl)-pyridin-2-yl]-amine]
Cc1ccncc1Nc1cc(-c2nc(N3CCNCC3)c3c(C4CC4)cncc3n2)ccn1 [Example 478, [4-(5-Cyclopropyl-4-piperazin-1-yl-pyrido[3,4-d]pyrimidin-2-yl)-pyridin-2-yl]-(4-methyl-pyridin-3-yl)-amine]
Fc1cccc(Nc2cc(-c3nc(N4CCNCC4)c4c(C5CC5)cncc4n3)ccn2)n1 [Example 483, [4-(5-Cyclopropyl-4-piperazin-1-yl-pyrido[3,4-d]pyrimidin-2-yl)-pyridin-2-yl]-(6-fluoro-pyridin-2-yl)-amine]
Cc1ccccc1Nc1cc(-c2nc(N3CCNCC3)c3c(C4CC4)cncc3n2)ccn1 [Example 486, [4-(5-Cyclopropyl-4-piperazin-1-yl-pyrido[3,4-d]pyrimidin-2-yl)-pyridin-2-yl]-o-tolyl-amine]
COc1cncc2nc(-c3ccnc(Nc4cnn(-c5ccccc5)c4)c3)nc(N3CCNCC3)c12 [Example 489, 4-(5-Methoxy-4-piperazin-1-yl-pyrido[3,4-d]pyrimidin-2-yl)-N-(1-phenylpyrazol-4-yl)pyridin-2-amine]
COc1cncc2nc(-c3ccnc(Nc4ccc5c(C)n(C)nc5c4)c3)nc(N3CCNCC3)c12 [Example 490, (2,3-Dimethyl-2H-indazol-6-yl)-[4-(5-methoxy-4-piperazin-1-yl-pyrido[3,4-d]pyrimidin-2-yl)-pyridin-2-yl]-amine]
COc1cncc2nc(-c3ccnc(Nc4cnn(-c5ccccc5F)c4)c3)nc(N3CCNCC3)c12 [Example 491, [1-(2-Fluoro-phenyl)-1H-pyrazol-4-yl]-[4-(5-methoxy-4-piperazin-1-yl-pyrido[3,4-d]pyrimidin-2-yl)-pyridin-2-yl]-amine]
c1ccc(-n2cc(Nc3cc(-c4nc(N5CCNCC5)c5c(C6CC6)cncc5n4)ccn3)cn2)cc1 [Example 492, [4-(5-cyclopropyl-4-piperazin-1-yl-pyrido[3,4-d]pyrimidin-2-yl)-pyridin-2-yl]-(1-phenyl-1H-pyrazol-4-yl)-amine]
Cc1c2ccc(Nc3cc(-c4nc(N5CCNCC5)c5c(C6CC6)cncc5n4)ccn3)cc2nn1C [Example 493, [4-(5-Cyclopropyl-4-piperazin-1-yl-pyrido[3,4-d]pyrimidin-2-yl)-pyridin-2-yl]-(2,3-dimethyl-2H-indazol-6-yl)-amine]
Fc1ncccc1Nc1cc(-c2nc(N3CCNCC3)c3c(C4CC4)cncc3n2)ccn1 [Example 495, [4-(5-cyclopropyl-4-piperazin-1-yl-pyrido[3,4-d]pyrimidin-2-yl)-pyridin-2-yl]-(2-fluoro-pyridin-3-yl)-amine]

pIC50, 6.00 to 7.00:
COc1cncc2nc(-c3ccnc(Nc4cc(F)c(F)cc4F)c3)nc(N3CCNCC3)c12 [Example 455, [4-(5-Methoxy-4-piperazin-1-yl-pyrido[3,4-d]pyrimidin-2-yl)-pyridin-2-yl]-(2,4,5-trifluoro-phenyl)-amine]
COc1cncc2nc(-c3ccnc(Nc4cccc(F)n4)c3)nc(N3CCC(O)CC3)c12 [Example 468, 1-{2-[2-(6-Fluoro-pyridin-2-ylamino)-pyridin-4-yl]-5-methoxy-pyrido[3,4-d]pyrimidin-4-yl}-piperidin-4-ol]
N#Cc1ccnc(Nc2cc(-c3nc(N4CCC(O)CC4)c4c(C5CC5)cncc4n3)ccn2)c1 [Example 482, 2-{4-[5-Cyclopropyl-4-(4-hydroxy-piperidin-1-yl)-pyrido[3,4-d]pyrimidin-2-yl]-pyridin-2-ylamino}-isonicotinonitrile]
c1ccc(Nc2cc(-c3nc(N4CCNCC4)c4ccncc4n3)ccn2)cc1 [Example 494, Phenyl-[4-(4-piperazin-1-yl-pyrido[3,4-d]pyrimidin-2-yl)-pyridin-2-yl]-amine]
CNc1nc(-c2ccnc(Nc3cccc(N4CCNCC4)c3)c2)nc2cncc(OC)c12 [Example 500, {5-Methoxy-2-[2-(3-piperazin-1-yl-phenylamino)-pyridin-4-yl]-pyrido[3,4-d]pyrimidin-4-yl}-methyl-amine]

pIC50, 4.40 to 5.00:
COc1cncc2nc(-c3ccnc(Nc4ccccc4)c3)nc(N3CCC(F)(F)CC3)c12 [Example 460, {4-[4-(4,4-Difluoro-piperidin-1-yl)-5-methoxy-pyrido[3,4-d]pyrimidin-2-yl]-pyridin-2-yl}-phenyl-amine]
COc1cncc2nc(-c3ccnc(Nc4cc(C)on4)c3)nc(N3CCNCC3)c12 [Example 496, [4-(5-Methoxy-4-piperazin-1-yl-pyrido[3,4-d]pyrimidin-2-yl)-pyridin-2-yl]-(5-methyl-isoxazol-3-yl)-amine]
Oc1nc(-c2ccnc(Nc3cccc(N4CCNCC4)c3)c2)nc2cnccc12 [Example 497, 2-[2-(3-piperazin-1-yl-phenylamino)-pyridin-4-yl]-pyrido[3,4-d]pyrimidin-4-ol]
Oc1nc(-c2ccnc(Nc3cccc(CN4CCNCC4)c3)c2)nc2cnccc12 [Example 498, 2-[2-(3-piperazin-1-ylmethyl-phenylamino)-pyridin-4-yl]-pyrido[3,4-d]pyrimidin-4-ol]
Oc1nc(-c2ccnc(Nc3cnn(CC4CCNCC4)c3)c2)nc2cnccc12 [Example 499, 2-[2-(1-Piperidin-4-ylmethyl-1H-pyrazol-4-ylamino)-pyridin-4-yl]-pyrido[3,4-d]pyrimidin-4-ol]
CNc1nc(-c2ccnc(Nc3ccc(OCCN4CCCC4)cc3)c2)nc2cncc(OC)c12 [Example 501, (5-Methoxy-2-{2-[4-(2-pyrrolidin-1-yl-ethoxy)-phenylamino]-pyridin-4-yl}-pyrido[3,4-d]pyrimidin-4-yl)-methyl-amine]
